US20070203209A1, “Useful indole compounds” (priority 2005, published 2007)

Each molecule was assayed on ovalbumin-induced eosinophil induction (eosinophils in BAL fluid) (assay: Rat Ovalbumin Model (ovalbumin-induced airway cell proliferation and inflammation)). Conditions: ability to prevent ovalbumin-induced eosinophil induction (percentage of eosinophils in BAL fluid); test compounds dosed orally at 5 mg/kg twice daily, days 5-12; samples 24 hours after last OVA challenge.
Format: in vivo, Brown Norway rats
Procedure: Complete protocol details can be found in Eynott et al. (2003. J. Pharmacol. Ther. 304:22-29). Briefly, Brown Norway rats are sensitized on days 1, 2, and 3 with intraperitoneal (i.p.) injections of lmg ovalbumin (OVA) and 100 mg Al(OH)3 in 1 mL 0.9% NaCl saline. They are then exposed to either 0.9% NaCl saline or 1% OVA aerosol every 3rd day (days 6, 9, & 12) for 30 minutes. 2 mg/kg dexamethasone is used as a positive control and is dosed i.p. once a day on days 4, 5, 6, 9, & 12. Vehicle (15% β-cyclodextrins in DMSO) and test compounds are dosed orally twice a day on days 5-12. On challenge days, all animals are treated 1 hour prior to OVA allergen exposure and, if required for twice a day treatment, ˜4-8 hours after allergen exposure. Samples are collected 24 hours after the last OVA challenge. For sample collection, rats are anaesthetized by administration of 10 mg/kg xylazine and 60 mg/kg ketamine intraperitoneally. Once the rats were fully anesthetized, blood is collected for serum via the retro-orbital route. The rats are subsequently perfused by injecting 30 mL PBS through the right ventricle of the heart after the abdominal aorta is severed. A tracheostomy is then performed and bronchoalveolar lavage fluid (BAL) is collected through five 5 mL rinses using Hank's Balanced Salt Solution, which was kept on ice. Airway inflammatory cell accumulation and proliferation of cells are measured through the BAL fluid collection and subsequent cell counts. Cytospin slides are prepared and eosinophil % are determined by counting ˜400 cells per slide. The test compounds are dosed at 5 mg/kg twice daily. Activity is scored based on the ability of the test compound to prevent ovalbumin-induced eosinophil induction (as determined by percentage of eosinophils in BAL fluid).
For Cc1c(CC(=O)O)c2c(Cl)cc(Cl)cc2n1Cc1cccc(OC(F)(F)F)c1 [{4,6-dichloro-2-methyl-1-[3-(trifluoromethoxy)benzyl]-1H-indol-3-yl}acetic acid], the “Activity (P < 0.05)” value was “no”. With Cc1c(CC(=O)O)c2cc(F)c(Cl)cc2n1Cc1nc2ccccc2s1 [[1-(1,3-benzothiazol-2-ylmethyl)-6-chloro-5-fluoro-2-methyl-1H-indol-3-yl]acetic acid] the “Activity (P < 0.05)” value was “no”. In the case of COc1cc2c(CC(=O)O)c(C)n(Cc3cccc(C(F)(F)F)c3)c2cc1Cl [{6-chloro-5-methoxy-2-methyl-1-[3-(trifluoromethyl)benzyl]-1H-indol-3-yl}acetic acid], the “Activity (P < 0.05)” value is reported as “no”. For Cc1c(CC(=O)O)c2cc(F)c(Cl)cc2n1Cc1cccc(OC(F)(F)F)c1 [{6-chloro-5-fluoro-2-methyl-1-[3-(trifluoromethoxy)benzyl]-1H-indol-3-yl}acetic acid], the “Activity (P < 0.05)” value was “no”. For COc1cc2c(CC(=O)O)c(C)n(Cc3cccc(OC(F)(F)F)c3)c2cc1Cl [{6-chloro-5-methoxy-2-methyl-1-[3-(trifluoromethoxy)benzyl]-1H-indol-3-yl}acetic acid], the “Activity (P < 0.05)” value was “yes”. For COc1cc2c(CC(=O)O)c(C)n(Cc3nc4ccccc4s3)c2cc1Cl [[1-(1,3-benzothiazol-2-ylmethyl)-6-chloro-5-methoxy-2-methyl-1H-indol-3-yl]acetic acid], the “Activity (P < 0.05)” value was “no”. COc1cc2c(CC(=O)O)c(C)n(Cc3cc(Cl)cc(Cl)c3)c2cc1Cl [[6-chloro-1-(3,5-dichlorobenzyl)-5-methoxy-2-methyl-1H-indol-3-yl]acetic acid] was tested, and the “Activity (P < 0.05)” value was “no”. Cc1cc2c(CC(=O)O)c(C)n(Cc3cccc(OC(F)(F)F)c3)c2cc1Cl [{6-chloro-2,5-dimethyl-1-[3-(trifluoromethoxy)benzyl]-1H-indol-3-yl}acetic acid] was tested, and the “Activity (P < 0.05)” value was “yes”. In the case of Cc1cc2c(CC(=O)O)c(C)n(Cc3cccc(C(F)(F)F)c3)c2cc1Cl [{6-chloro-2,5-dimethyl-1-[3-(trifluoromethyl)benzyl]-1H-indol-3-yl}acetic acid], the “Activity (P < 0.05)” value is reported as “no”. With Cc1c(CC(=O)O)c2cc(Cl)c(Cl)cc2n1Cc1cccc(OC(F)(F)F)c1 [{5,6-dichloro-2-methyl-1-[3-(trifluoromethoxy)benzyl]-1H-indol-3-yl}acetic acid] the “Activity (P < 0.05)” value was “no”. For COc1cc2c(CC(=O)O)c(C)n(Cc3cccc(Cl)c3)c2cc1Cl [[6-chloro-1-(3-chlorobenzyl)-5-methoxy-2-methyl-1H-indol-3-yl]acetic acid], the “Activity (P < 0.05)” value was “no”. In the case of Cc1cc2c(CC(=O)O)c(C)n(Cc3nc4ccccc4s3)c2cc1Cl [[1-(1,3-benzothiazol-2-ylmethyl)-6-chloro-2,5-dimethyl-1H-indol-3-yl]acetic acid], the “Activity (P < 0.05)” value is reported as “no”. In the case of COc1cc2c(CC(=O)O)c(C)n(Cc3cccc(Br)c3)c2cc1Cl [[1-(3-bromobenzyl)-6-chloro-5-methoxy-2-methyl-1H-indol-3-yl]acetic acid], the “Activity (P < 0.05)” value is reported as “no”.
